Test results published in patent US20230085307A1, “PYRIDAZINONE COMPOUND AND HERBICIDE” (NISSAN CHEMICAL CORPORATION, priority 2019, published 2023).

Columns and labels:
wild oat [1] = assay: Test Example 5: herbicidal effect by foliage application, plastic box (Table 20, symbol I); assay type: in vivo, wild oat (Avena fatua); conditions: foliage application, 320 g/ha, 3 weeks after application
In short: (§1)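 Plants were sown into sterilized diluvial soil under about 1.5 cm cover and kept in a greenhouse at 25° C. to 30° C. Fourteen days on, foliage received an even spray of the diluted emulsion. Herbicidal or crop effect was judged three weeks afterwards.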

persian speedwell [2] = assay: Test Example 5: herbicidal effect by foliage application, plastic box (Table 20, symbol R); assay type: in vivo, Persian speedwell (Veronica persica); conditions: foliage application, 320 g/ha, 3 weeks after application
In short: as §1

velvetleaf [3] = assay: Test Example 5: herbicidal effect by foliage application, plastic box (Table 20, symbol M); assay type: in vivo, velvetleaf (Abutilon theophrasti); conditions: foliage application, 320 g/ha, 3 weeks after application
In short: as §1

wild oat [4] = assay: Test Example 4: herbicidal effect by soil treatment (Table 19, symbol I); assay type: in vivo, wild oat (Avena fatua); conditions: 320 g/ha
In short: (§2)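 In this soil treatment, the formulated compound reached the seeds only through the soil: seeds were buried about 1.5 cm deep in sterilized diluvial soil, then the diluted emulsion was sprayed over the surface. After three weeks at 25° C. to 30° C. in a greenhouse, effects were graded on criteria from an earlier test.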

Chinese sprangletop = assay: Test Example 3: herbicidal effect by foliage application, Wagner pot (Table 18, symbol D); assay type: in vivo, chinese sprangletop (Leptochloa chinensis); conditions: 320 g/ha
In short: (§3)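 Plants were sown in alluvial soil held under 0.1–0.5 cm standing water and grown 14 days in a greenhouse at 25–30 °C. An emulsifiable formulation, water-diluted to the set dose, was then sprayed onto the foliage, and effects were scored three weeks later using previously defined criteria.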

rice flat sedge = assay: Test Example 3: herbicidal effect by foliage application, Wagner pot (Table 18, symbol E); assay type: in vivo, rice flat sedge (Cyperus iria); conditions: 320 g/ha
In short: as §3

velvetleaf [5] = assay: Test Example 4: herbicidal effect by soil treatment (Table 19, symbol M); assay type: in vivo, velvetleaf (Abutilon theophrasti); conditions: 320 g/ha
In short: as §2

barnyard grass [6] = assay: Test Example 4: herbicidal effect by soil treatment (Table 19, symbol H); assay type: in vivo, barnyard grass (Echinochloa crus-galli); conditions: 320 g/ha
In short: as §2

green foxtail [7] = assay: Test Example 5: herbicidal effect by foliage application, plastic box (Table 20, symbol G); assay type: in vivo, green foxtail (Setaria viridis); conditions: foliage application, 320 g/ha, 3 weeks after application
In short: as §1

persian speedwell [8] = assay: Test Example 4: herbicidal effect by soil treatment (Table 19, symbol R); assay type: in vivo, Persian speedwell (Veronica persica); conditions: 320 g/ha
In short: as §2

lambsquarters [9] = assay: Test Example 4: herbicidal effect by soil treatment (Table 19, symbol O); assay type: in vivo, lambsquarters (Chenopodium album); conditions: 320 g/ha
In short: as §2

late watergrass = assay: Test Example 1: herbicidal activity, application before weed generation under submerged conditions (Table 16, symbol A); assay type: in vivo, late watergrass (Echinochloa oryzicola); conditions: 320 g/ha applied herbicide
In short: (§4)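 Emulsion formulation, water-diluted to set dose, was put onto the flooded surface (4 cm depth, alluvial soil) the same day weeds were sown and 2.5-leaf rice transplanted. After 3 weeks at 25-30 °C under glass, each species was rated 0 (≤5% kill) to 5 (≥90% kill).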

southern crabgrass [10] = assay: Test Example 5: herbicidal effect by foliage application, plastic box (Table 20, symbol F); assay type: in vivo, southern crabgrass (Digitaria ciliaris); conditions: foliage application, 320 g/ha, 3 weeks after application
In short: as §1

redroot pigweed = assay: Test Example 4: herbicidal effect by soil treatment (Table 19, symbol N); assay type: in vivo, redroot pigweed (Amaranthus retroflexus); conditions: 320 g/ha
In short: as §2

lambsquarters [11] = assay: Test Example 5: herbicidal effect by foliage application, plastic box (Table 20, symbol O); assay type: in vivo, lambsquarters (Chenopodium album); conditions: foliage application, 320 g/ha, 3 weeks after application
In short: as §1

Italian ryegrass [12] = assay: Test Example 4: herbicidal effect by soil treatment (Table 19, symbol K); assay type: in vivo, Italian ryegrass (Lolium multiflorum); conditions: 320 g/ha
In short: as §2

Italian ryegrass [13] = assay: Test Example 5: herbicidal effect by foliage application, plastic box (Table 20, symbol K); assay type: in vivo, Italian ryegrass (Lolium multiflorum); conditions: foliage application, 320 g/ha, 3 weeks after application
In short: as §1

oval-leafed pondweed = assay: Test Example 1: herbicidal activity, application before weed generation under submerged conditions (Table 16, symbol C); assay type: in vivo, oval-leafed pondweed (Monochoria vaginalis); conditions: 320 g/ha applied herbicide
In short: as §4

southern crabgrass [14] = assay: Test Example 4: herbicidal effect by soil treatment (Table 19, symbol F); assay type: in vivo, southern crabgrass (Digitaria ciliaris); conditions: 320 g/ha
In short: as §2

blackgrass [15] = assay: Test Example 5: herbicidal effect by foliage application, plastic box (Table 20, symbol J); assay type: in vivo, blackgrass (Alopecurus myosuroides); conditions: foliage application, 320 g/ha, 3 weeks after application
In short: as §1

green foxtail [16] = assay: Test Example 4: herbicidal effect by soil treatment (Table 19, symbol G); assay type: in vivo, green foxtail (Setaria viridis); conditions: 320 g/ha
In short: as §2

blackgrass [17] = assay: Test Example 4: herbicidal effect by soil treatment (Table 19, symbol J); assay type: in vivo, blackgrass (Alopecurus myosuroides); conditions: 320 g/ha
In short: as §2

windgrass [18] = assay: Test Example 5: herbicidal effect by foliage application, plastic box (Table 20, symbol L); assay type: in vivo, windgrass (Apera spica-venti); conditions: foliage application, 320 g/ha, 3 weeks after application
In short: as §1

Japanese bulrush = assay: Test Example 1: herbicidal activity, application before weed generation under submerged conditions (Table 16, symbol B); assay type: in vivo, Japanese bulrush (Schoenoplectus juncoides); conditions: 320 g/ha applied herbicide
In short: as §4

windgrass [19] = assay: Test Example 4: herbicidal effect by soil treatment (Table 19, symbol L); assay type: in vivo, windgrass (Apera spica-venti); conditions: 320 g/ha
In short: as §2

barnyard grass [20] = assay: Test Example 5: herbicidal effect by foliage application, plastic box (Table 20, symbol H); assay type: in vivo, barnyard grass (Echinochloa crus-galli); conditions: foliage application, 320 g/ha, 3 weeks after application
In short: as §1

chickweed = assay: Test Example 4: herbicidal effect by soil treatment (Table 19, symbol P); assay type: in vivo, common chickweed (Stellaria media); conditions: 320 g/ha
In short: as §2

barnyard grass [21] = assay: Test Example 3: herbicidal effect by foliage application, Wagner pot (Table 18, symbol H); assay type: in vivo, barnyard grass (Echinochloa crus-galli); conditions: 320 g/ha
In short: as §3

Row | SMILES | effect on wild oat (I) (wild oat [1]) | effect on persian speedwell (R) (persian speedwell [2]) | effect on velvetleaf (M) (velvetleaf [3]) | herbicidal effect rating, I: wild oat (wild oat [4]) | herbicidal effect on D (Chinese sprangletop), rating 0-5 (Chinese sprangletop) | herbicidal effect on E (rice flat sedge), rating 0-5 (rice flat sedge) | herbicidal effect rating, M: velvetleaf (velvetleaf [5]) | herbicidal effect rating, H: barnyard grass (barnyard grass [6]) | effect on green foxtail (G) (green foxtail [7]) | herbicidal effect rating, R: persian speedwell (persian speedwell [8]) | herbicidal effect rating, O: lambsquarters (lambsquarters [9]) | Herbicidal effect on A: late watergrass (grade 0-5) (late watergrass) | effect on southern crabgrass (F) (southern crabgrass [10]) | herbicidal effect rating, N: redroot pigweed (redroot pigweed) | effect on lambsquarters (O) (lambsquarters [11]) | herbicidal effect rating, K: Italian ryegrass (Italian ryegrass [12]) | effect on Italian ryegrass (K) (Italian ryegrass [13]) | Herbicidal effect on C: oval-leafed pondweed (grade 0-5) (oval-leafed pondweed) | herbicidal effect rating, F: southern crabgrass (southern crabgrass [14]) | effect on blackgrass (J) (blackgrass [15]) | also measured
1 | CCCC(=O)Oc1c(C)nn(C)c(=O)c1-c1c(-c2ccc(C(C)(C)C)cc2)sc2ccc(F)cc12 [2-017] | 0 (Herbicidal rate of 5% or less (almost no effect)) | 3 (Herbicidal rate of 40% or more and less than 70%) | 1 (Herbicidal rate of 5% or more and less than 20%) | 0 (Herbicidal rate of 5% or less (almost no effect)) | 3 (Herbicidal rate of 40% or more and less than 70%) | 2 (Herbicidal rate of 20% or more and less than 40%) | 0 (Herbicidal rate of 5% or less (almost no effect)) | 2 (Herbicidal rate of 20% or more and less than 40%) | 1 (Herbicidal rate of 5% or more and less than 20%) | 0 (Herbicidal rate of 5% or less (almost no effect)) | 2 (Herbicidal rate of 20% or more and less than 40%) | 2 (Herbicidal rate of 20% or more and less than 40%) | 0 (Herbicidal rate of 5% or less (almost no effect)) | 4 (Herbicidal rate of 70% or more and less than 90%) | 1 (Herbicidal rate of 5% or more and less than 20%) | 0 (Herbicidal rate of 5% or less (almost no effect)) | 0 (Herbicidal rate of 5% or less (almost no effect)) | 0 (Herbicidal rate of 5% or less (almost no effect)) | 0 (Herbicidal rate of 5% or less (almost no effect)) | 0 (Herbicidal rate of 5% or less (almost no effect)) | herbicidal effect rating, G: green foxtail (green foxtail [16]): 1 (Herbicidal rate of 5% or more and less than 20%); herbicidal effect rating, J: blackgrass (blackgrass [17]): 0 (Herbicidal rate of 5% or less (almost no effect)); effect on windgrass (L) (windgrass [18]): 0 (Herbicidal rate of 5% or less (almost no effect)); Herbicidal effect on B: Japanese bulrush (grade 0-5) (Japanese bulrush): 0 (Herbicidal rate of 5% or less (almost no effect)); herbicidal effect rating, L: windgrass (windgrass [19]): 0 (Herbicidal rate of 5% or less (almost no effect)); effect on barnyard grass (H) (barnyard grass [20]): 3 (Herbicidal rate of 40% or more and less than 70%); herbicidal effect rating, P: chickweed (chickweed): 0 (Herbicidal rate of 5% or less (almost no effect)); herbicidal effect on H (barnyard grass), rating 0-5 (barnyard grass [21]): 5 (Herbicidal rate of 90% or more (almost completely withered))
2 | Cc1nn(C)c(=O)c(-c2c(-c3ccc(C(F)(F)F)cc3)sc3ccc(F)cc23)c1O [2-020] | 4 (Herbicidal rate of 70% or more and less than 90%) | 5 (Herbicidal rate of 90% or more (almost completely withered)) | 5 (Herbicidal rate of 90% or more (almost completely withered)) | 0 (Herbicidal rate of 5% or less (almost no effect)) | 3 (Herbicidal rate of 40% or more and less than 70%) | 5 (Herbicidal rate of 90% or more (almost completely withered)) | 3 (Herbicidal rate of 40% or more and less than 70%) | 2 (Herbicidal rate of 20% or more and less than 40%) | 5 (Herbicidal rate of 90% or more (almost completely withered)) | 5 (Herbicidal rate of 90% or more (almost completely withered)) | 5 (Herbicidal rate of 90% or more (almost completely withered)) | 0 (Herbicidal rate of 5% or less (almost no effect)) | 5 (Herbicidal rate of 90% or more (almost completely withered)) | 5 (Herbicidal rate of 90% or more (almost completely withered)) | 5 (Herbicidal rate of 90% or more (almost completely withered)) | 5 (Herbicidal rate of 90% or more (almost completely withered)) | 5 (Herbicidal rate of 90% or more (almost completely withered)) | 0 (Herbicidal rate of 5% or less (almost no effect)) | 3 (Herbicidal rate of 40% or more and less than 70%) | 3 (Herbicidal rate of 40% or more and less than 70%) | herbicidal effect rating, G: green foxtail (green foxtail [16]): 4 (Herbicidal rate of 70% or more and less than 90%); herbicidal effect rating, J: blackgrass (blackgrass [17]): 3 (Herbicidal rate of 40% or more and less than 70%); effect on windgrass (L) (windgrass [18]): 5 (Herbicidal rate of 90% or more (almost completely withered)); Herbicidal effect on B: Japanese bulrush (grade 0-5) (Japanese bulrush): 2 (Herbicidal rate of 20% or more and less than 40%); herbicidal effect rating, L: windgrass (windgrass [19]): 5 (Herbicidal rate of 90% or more (almost completely withered)); effect on barnyard grass (H) (barnyard grass [20]): 5 (Herbicidal rate of 90% or more (almost completely withered)); herbicidal effect rating, P: chickweed (chickweed): 3 (Herbicidal rate of 40% or more and less than 70%); herbicidal effect on H (barnyard grass), rating 0-5 (barnyard grass [21]): 5 (Herbicidal rate of 90% or more (almost completely withered))
